Laboratory results as given in patent US11219625B2, “Inhibitors of N-linked glycosylation and methods using same” (YALE UNIVERSITY, priority 2015, dated 2022).

Legend:
FGFR1 = assay: Western blot of FGFR phosphorylation, H1581 and H2444 cells; format: cell-based; details: H1581 and H2444, FIG. 4F
Description: FIGS. 4A-4H illustrate the finding that NGI-1 blocks RTK driven proliferation. FIG. 4A illustrates western blot analysis of EGFR phosphorylation (Y1173) and gel mobility in PC9 (EGFR-mutant) and A549 (k-ras mutant) NSCLC cells after 10 μM NGI-1 treatment for 24 h. […] Actin expression was used as a control for protein loading. FIG. 4B illustrates MTT assays results of PC9 following treatment with 10 μM NGI-1 or 1 μM tunicamycin for a total of 5 d. Relative proliferation id reported in fold increase from day 0. FIG. 4C illustrates MTT assays results of A549 following treatment with 10 μM NGI-1 or 1 μM tunicamycin for a total of 5 d. Relative proliferation id reported in fold increase from day 0. FIG. 4D illustrates protein phosphorylation profiles of PC9 cells analyzed by phospho-protein array to assess the response of PC9 to 10 μM NGI-1 for 24 h. FIG. 4E illustrates protein phosphorylation profiles of A549 cells analyzed by phospho-protein array to assess the response of A549 to 10 μM NGI-1 for 24 h. FIG. 4F illustrates western blot analysis of FGFR phosphorylation (Y653/654) and gel mobility for H1581 (TKI sensitive) and H2444 (TKI insensitive) NSCLC cell lines. […] FIG. 4G illustrates MTT assays for H1581 cells treated with 10 μM NGI-1 for 5 d. Asterisk (***) indicates a significant difference p<0.001 for MTT. FIG. 4H illustrates MTT assays for H2444 cells treated with 10 μM NGI-1 for 5 d. […]

EGFR = EGFR western blot gel mobility, H3255 cells; format: cell-based; details: lung adenocarcinoma cells, 10 μM NGI-1, 24 h
Description: FIGS. 3A-3F illustrate the finding that NGI-1 disrupts EGFR glycosylation and cell surface expression. FIG. 3A illustrates EGFR western blots from H3255 treated with or without 10 μM NGI-1 for 24 h. Molecular weight size shifts are compared to PNGase digestion and tunicamycin treatment alone. FIG. 3B illustrates EGFR localization in H3255 cells after 24 h 10 μM NGI-1 treatment analyzed by western blot. Plasma membrane proteins present on the surface of H3255 cells were biotinylated using a non-permeable form of biotin, sulfo-NHS—SS-biotin, and precipitated by streptavidin agarose beads. Biotin-labeled plasma membrane proteins and the fraction of non-biotinylated proteins were subjected to SDS-PAGE and analyzed by western blot against EGFR. FIG. 3C illustrates EGFR localization in H3255 cells after 24 h 10 μM NGI-1 treatment analyzed by confocal microscopy. H3255 cells were subjected to immunofluorescence for EGFR protein (red) counterstained with (CRT; green) and colocalization was determined by confocal microscopy. Nuclei were counterstained with ToPro3 (cyan). […] Bar, 10 μm. FIG. 3D illustrates quantification of colocalization using Image J Colormap Software. […] ITB1 localization after 10 μM NGI-1 for 48 h analyzed by (FIG. 3E) surface biotinylation (FIG. 3F) confocal microscopy (green). […]

Cc1cnc(NC(=O)c2cc(S(=O)(=O)N(C)C)ccc2N2CCCC2)s1 [NGI-1, 5-(N,N-Dimethylsulfamoyl)-N-(5-methylthiazol-2-yl)-2-(pyrrolidin-1-yl)benzamide]
FGFR1 phosphorylation (FGFR1): blocked FGFR1 phosphorylation | EGFR N-linked glycosylation (molecular weight on SDS-PAGE) (EGFR): blocked EGFR N-linked glycosylation
